Patent publication US5858371A, “Pharmaceutical composition for the control and treatment of anorectal and colonic diseases” (Panacea Biotech Limited, priority 1997, dated 1999)

Columns and labels:
[1] = test system: granulocyte infiltration (MPO activity); assay: Granulocyte/leucocyte infiltration (MPO activity), croton oil ear; assay type: in vivo, mice; conditions: for leukocyte infiltration: measured as myeloperoxidase activity; for Effect on granulocyte infiltration (MPO activity): apigenin glycoside 0.37, luteolin glycoside 0.27, indomethacin 1.26, hydrocortisone 0.41 μMol, one unit = 1 nMol/min. of tetraguaiacol at 25° C.
Method: Effect on granulocyte infiltration (MPO activity).
One unit = 1 nMol/min. of tetraguaiacol formed at 25° C. p < 0.05
The inflammation appears to naturally suppress after 30 hours.

[2] = test system: croton-oil induced ear oedema; assay: Croton oil ear test (topical; oedema); assay type: in vivo, mice; conditions: for Activity Ratio on Molar basis: Indomethacin = 1; for Effect on Oedema Development: apigenin glycoside 0.037, luteolin glycoside 0.27, indomethacin 1.26, hydrocortisone 0.41 μMol, means ± s.e.
Source text: The test used was described in published literature, where apigenin 7-glucoside was used as a reference sample.
Indomethacin and hydrocortisone were used as the reference drugs.

[3] = test system: Carrageenan-induced Mice Paw Oedema; assay: Carrageenan-induced paw oedema, topical application; assay type: in vivo
Method: Carrageenan-induced Pedal Oedema Test:
Modification of Carrageenan-induced Mice Paw Oedema following Topical
Application of the Standardized Extract and Indomethacin.
The duration of action of topical preparation was determined by studying the effects of different concentrations of the drug on oedema over a period of 8 hr. As evident from the Table 3, the peak inhibition was observed after 3-4 hours of carrageenan injection beginning at 2 hr for the extract at lower concentrations (0.5-2.0%) and 1 hr. at 4% concentration.

[4] = test system: Carrageenan-induced Pedal Oedema; assay: Carrageenan-induced pedal oedema in rats, oral extract / i.p. indomethacin; assay type: in vivo; conditions: for Oedema + SEM (%): N=6
Source text: Carrageenan-induced oedema is a biphasic event, the early hypermia being due to the release of histamine and serotonin and the delayed oedema due to the release of bradykinin and prostaglandins.
Modification of Carrageenan-induced Pedal Oedema in Rats following oral
Administration of the extract and Intraperitoneal treatment with […]

[5] = test system: mast cell histamine secretion; conditions: cited from earlier work
[6] = test system: cotton pellet granuloma; conditions: in vivo; cited from earlier work
[7] = test system: neutrophil functions; conditions: cited from earlier work

## O=c1cc(-c2ccc(O)cc2)oc2cc(O)cc(O)c12 [Apigenin, apigenin]
[1]
  leukocyte infiltration: decrease leukocyte infiltration

## O=c1cc(-c2ccc(O)cc2)oc2cc(O[C@@H]3O[C@H](CO)[C@@H](O)[C@H](O)[C@H]3O)cc(O)c12 [Apigenin-7-glucoside]
[2]
  Activity Ratio on Molar basis: 0.32

## C[C@]12CCC(=O)C=C1CC[C@@H]1[C@@H]2[C@@H](O)C[C@@]2(C)[C@H]1CC[C@]2(O)C(=O)CO [Hydrocortisone]
[1]; 6 hours after treatment
  Effect on granulocyte infiltration (MPO activity): 0.0 ± 0.2 unit
[1]; 18 hours after treatment
  Effect on granulocyte infiltration (MPO activity): 6.9 ± 2.1 unit
[1]; 30 hours after treatment
  Effect on granulocyte infiltration (MPO activity): 8.2 ± 2.4 unit
[2]; 6 hours after treatment
  Effect on Oedema Development: 0.5 ± 0.2 mg
[2]; 18 hours after treatment
  duration of antiinflammatory activity: maintain their effect to a certain extent
  Effect on Oedema Development: 0.7 ± 0.1 mg
[2]; 30 hours after treatment
  Effect on Oedema Development: 0.7 ± 0.1 mg
[2]
  Activity Ratio on Molar basis: 14.00

## COc1ccc2c(c1)c(CC(=O)O)c(C)n2C(=O)c1ccc(Cl)cc1 [Indomethacin]
[1]; 6 hours after treatment
  Effect on granulocyte infiltration (MPO activity): 0.0 ± 0.1 unit
[1]; 18 hours after treatment
  Effect on granulocyte infiltration (MPO activity): 10.0 ± 1.6 unit
[1]; 30 hours after treatment
  Effect on granulocyte infiltration (MPO activity): 6.8 ± 3.4 unit
[3]; Indomethacin line printed at dose 1.00, +60 m, N=6
  inhibition of carrageenan-induced paw oedema: 30.3%
[3]; Indomethacin line printed at dose 1.00, +120 m, N=6
  inhibition of carrageenan-induced paw oedema: 28.0%
[3]; Indomethacin line printed at dose 1.00, +180 m, N=6
  inhibition of carrageenan-induced paw oedema: 46.8%
[3]; Indomethacin line printed at dose 1.00, +240 m, N=6
  inhibition of carrageenan-induced paw oedema: 21.2%
[3]; Indomethacin line printed at dose 1.00, +360 m, N=6
  inhibition of carrageenan-induced paw oedema: 11.5%
[3]; Indomethacin line printed at dose 1.00, +480 m, N=6
  inhibition of carrageenan-induced paw oedema: 13.9%
[3]; Indomethacin line printed at dose 2.00, +60 m, N=6
  inhibition of carrageenan-induced paw oedema: 18.2%
[3]; Indomethacin line printed at dose 2.00, +120 m, N=6
  inhibition of carrageenan-induced paw oedema: 24.0%
[3]; Indomethacin line printed at dose 2.00, +180 m, N=6
  inhibition of carrageenan-induced paw oedema: 29.0%
[3]; Indomethacin line printed at dose 2.00, +240 m, N=6
  inhibition of carrageenan-induced paw oedema: 21.2%
[3]; Indomethacin line printed at dose 2.00, +360 m, N=6
  inhibition of carrageenan-induced paw oedema: 9.6%
[3]; Indomethacin line printed at dose 2.00, +480 m, N=6
  inhibition of carrageenan-induced paw oedema: 4.6%
[3]; indomethacin 2 percent concentration
  inhibition: 41.9%
[3]; last line, no dose given, +60 m
  inhibition of carrageenan-induced paw oedema: 24.2%
[3]; last line, no dose given, +120 m
  inhibition of carrageenan-induced paw oedema: 26.0%
[3]; last line, no dose given, +180 m
  inhibition of carrageenan-induced paw oedema: 41.9%
[3]; last line, no dose given, +240 m
  inhibition of carrageenan-induced paw oedema: 36.4%
[3]; last line, no dose given, +360 m
  inhibition of carrageenan-induced paw oedema: 11.5%
[3]; last line, no dose given, +480 m
  inhibition of carrageenan-induced paw oedema: 10.6%
[4]; indomethacin 0.5 mg/Kg i.p., +30 min
  Oedema + SEM (%): 13.6 ± 4.0%
[4]; indomethacin 0.5 mg/Kg i.p., +60 min
  Oedema + SEM (%): 18.9 ± 4.0%
[4]; indomethacin 0.5 mg/Kg i.p., +120 min
  Oedema + SEM (%): 28.8 ± 4.2%
[4]; indomethacin 1.0 mg/Kg i.p., +30 min
  Oedema + SEM (%): 9.3 ± 2.3%
[4]; indomethacin 1.0 mg/Kg i.p., +60 min
  Oedema + SEM (%): 12.3 ± 2.2%
[4]; indomethacin 1.0 mg/Kg i.p., +120 min
  Oedema + SEM (%): 16.4 ± 1.6%
[4]; indomethacin 1 mg/kg i.p.
  inhibition of oedema: 74%
[4]; indomethacin 2.0 mg/Kg i.p., +30 min
  Oedema + SEM (%): 8.2 ± 1.5%
[4]; indomethacin 2.0 mg/Kg i.p., +60 min
  Oedema + SEM (%): 12.8 ± 1.8%
[2]; 6 hours after treatment
  Effect on Oedema Development: 0.0 ± 0.1 mg
[2]; 18 hours after treatment
  duration of antiinflammatory activity: lose their antiinflammatory activity 18 hours after treatment
  Effect on Oedema Development: 3.1 ± 0.4 mg
[2]; 30 hours after treatment
  Effect on Oedema Development: 0.5 ± 0.1 mg

## O=c1c(O)c(-c2ccc(O)c(O)c2)oc2cc(O)cc(O)c12 [Quercetin, quercetin]
[5]
  mast cell histamine secretion: inhibits mast cell histamine secretion
[6]
  exudative and proliferative phases of cotton pellet granuloma: control significantly the exudative and the proliferative phases of the cotton pellet granuloma
[7]
  neutrophil functions: release of lysosomal enzymes, oxygen consumption, generation of free radicals and chemotaxis: inhibits mast cell histamine secretion (Benett, J. P., Gomperts, B. D. and Wollenweber, E., Arzneim. Forsch., 31, 433, 1981), neutrophil functions such as release of lysosomal enzymes, oxygen consumption, generation of free radicals and chemotaxis
[2]
  Activity Ratio on Molar basis: 0.65

## C[C@@H]1O[C@@H](OC[C@H]2O[C@@H](Oc3c(-c4ccc(O)c(O)c4)oc4cc(O)cc(O)c4c3=O)[C@H](O)[C@@H](O)[C@@H]2O)[C@H](O)[C@H](O)[C@H]1O [Rutin]
[2]
  Activity Ratio on Molar basis: 0.28

## O=c1cc(-c2ccc(O)c(O)c2)oc2cc(O)cc(O)c12 [luteolin]
[1]
  leukocyte infiltration: decrease leukocyte infiltration and luteolin maintained its effect even after 18 hours of treatment
